Source: ChEMBL document CHEMBL4393714, “Multi-targeting protein-protein interaction inhibitors: Evolution of macrocyclic ligands with embedded carbohydrates (MECs) to improve selectivity” (Eur J Med Chem, 2019)

Assays:
[1] = target: Melanocortin receptor 4 (Homo sapiens) (UniProt P32245); test: Displacement of [125I]NDP-alpha-MSH from human recombinant MC 4 receptor at 10 uM measured after 120 mins by scintillation counter method relative to control
[2] = target: Neuropeptide Y receptor type 1 (Homo sapiens) (UniProt P25929); test: Displacement of [125I] peptide YY from human neuropeptide Y1 receptor at 10 uM measured after 120 mins by scintillation counter method relative to control
Sequence of Neuropeptide Y receptor type 1 (Homo sapiens) (P25929 whole entry): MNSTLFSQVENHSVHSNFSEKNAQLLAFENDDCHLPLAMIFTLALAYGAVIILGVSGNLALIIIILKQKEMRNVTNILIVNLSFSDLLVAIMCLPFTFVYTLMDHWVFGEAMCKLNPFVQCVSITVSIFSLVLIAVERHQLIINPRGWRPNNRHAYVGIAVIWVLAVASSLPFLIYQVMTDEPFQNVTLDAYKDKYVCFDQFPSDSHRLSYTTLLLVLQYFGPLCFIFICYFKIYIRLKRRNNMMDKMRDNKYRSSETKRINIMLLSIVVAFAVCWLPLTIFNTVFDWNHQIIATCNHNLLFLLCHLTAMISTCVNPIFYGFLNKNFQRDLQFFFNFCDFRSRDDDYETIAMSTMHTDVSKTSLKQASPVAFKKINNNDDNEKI

Rattus norvegicus = species: Rattus norvegicus; test: Displacement of [3H]flunitrazepam from rat GABAA Central-type benzodiazepine receptor at 10 uM measured after 120 mins by scintillation counter method relative to control
[3] = target: B2 bradykinin receptor (Homo sapiens) (UniProt P30411); test: Displacement of [3H]bradykinin from human recombinant B2 receptor at 10 uM measured after 60 mins by scintillation counter method relative to control
Sequence of B2 bradykinin receptor (Homo sapiens) (P30411 whole entry): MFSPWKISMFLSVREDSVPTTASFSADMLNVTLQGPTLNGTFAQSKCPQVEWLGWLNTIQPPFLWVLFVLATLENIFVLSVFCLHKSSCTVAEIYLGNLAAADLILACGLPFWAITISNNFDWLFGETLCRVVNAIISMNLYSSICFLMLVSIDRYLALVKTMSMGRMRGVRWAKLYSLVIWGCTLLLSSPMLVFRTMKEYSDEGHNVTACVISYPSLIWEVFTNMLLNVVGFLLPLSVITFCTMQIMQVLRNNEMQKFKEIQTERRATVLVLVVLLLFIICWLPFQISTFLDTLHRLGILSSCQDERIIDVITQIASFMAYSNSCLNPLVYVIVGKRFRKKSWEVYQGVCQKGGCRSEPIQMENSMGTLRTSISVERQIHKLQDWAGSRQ

[4] = target: Vasopressin V1a receptor (Homo sapiens) (UniProt P37288); test: Displacement of [3H] AVP from human recombinant vasopressin V1A receptor at 10 uM measured after 60 mins by scintillation counter method relative to control
Sequence of Vasopressin V1a receptor (Homo sapiens) (P37288 whole entry, looked up): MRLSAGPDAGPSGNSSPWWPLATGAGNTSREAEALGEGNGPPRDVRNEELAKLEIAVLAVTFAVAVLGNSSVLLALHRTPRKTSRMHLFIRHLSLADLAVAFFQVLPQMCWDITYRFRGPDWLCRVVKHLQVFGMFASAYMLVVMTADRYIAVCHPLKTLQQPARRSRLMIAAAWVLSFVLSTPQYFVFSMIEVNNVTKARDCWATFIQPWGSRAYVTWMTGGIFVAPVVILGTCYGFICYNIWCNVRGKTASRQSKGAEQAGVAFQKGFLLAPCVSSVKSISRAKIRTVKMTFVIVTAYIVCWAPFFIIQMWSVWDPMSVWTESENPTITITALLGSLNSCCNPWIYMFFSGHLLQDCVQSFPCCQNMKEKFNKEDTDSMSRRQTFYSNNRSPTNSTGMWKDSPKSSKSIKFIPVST

[5] = target: Adenosine receptor A3 (Homo sapiens) (UniProt P0DMS8); test: Displacement of [125I] AB-MECA from human recombinant A3 receptor at 10 uM measured after 120 mins by scintillation counter method relative to control
Sequence of Adenosine receptor A3 (Homo sapiens) (P0DMS8 whole entry): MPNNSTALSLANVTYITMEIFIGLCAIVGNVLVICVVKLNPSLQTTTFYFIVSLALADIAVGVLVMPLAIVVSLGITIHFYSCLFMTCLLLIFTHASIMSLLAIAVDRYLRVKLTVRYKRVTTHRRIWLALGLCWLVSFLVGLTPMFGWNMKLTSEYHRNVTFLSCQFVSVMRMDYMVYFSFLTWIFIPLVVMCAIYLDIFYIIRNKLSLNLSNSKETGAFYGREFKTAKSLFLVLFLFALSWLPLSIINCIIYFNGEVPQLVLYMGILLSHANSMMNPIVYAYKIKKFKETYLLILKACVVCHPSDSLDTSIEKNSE

[6] = target: 5-hydroxytryptamine receptor 3A (Homo sapiens) (UniProt P46098); test: Displacement of [3H] BRL 43694 from human 5-HT3 at 10 uM measured after 120 mins by scintillation counter method relative to control
Sequence of 5-hydroxytryptamine receptor 3A (Homo sapiens) (P46098 whole entry): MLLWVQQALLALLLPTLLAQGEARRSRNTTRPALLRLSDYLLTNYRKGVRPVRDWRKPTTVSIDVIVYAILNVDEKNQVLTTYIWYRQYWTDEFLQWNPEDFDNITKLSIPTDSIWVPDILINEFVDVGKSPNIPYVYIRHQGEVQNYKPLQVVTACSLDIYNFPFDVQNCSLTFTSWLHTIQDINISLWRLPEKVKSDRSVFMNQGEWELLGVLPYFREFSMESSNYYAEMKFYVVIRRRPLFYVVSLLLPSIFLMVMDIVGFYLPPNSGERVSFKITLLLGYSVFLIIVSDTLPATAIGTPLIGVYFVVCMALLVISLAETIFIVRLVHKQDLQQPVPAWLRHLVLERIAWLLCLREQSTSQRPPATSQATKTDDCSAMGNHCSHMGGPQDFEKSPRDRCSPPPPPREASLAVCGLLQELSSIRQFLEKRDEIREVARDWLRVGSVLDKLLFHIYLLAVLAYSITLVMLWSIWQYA

[7] = target: Muscarinic acetylcholine receptor M2 (Homo sapiens) (UniProt P08172); test: Displacement of [3H]AF-DX 384 from human recombinant muscarinic 2 receptor at 10 uM measured after 60 mins by scintillation counter method relative to control
Sequence of Muscarinic acetylcholine receptor M2 (Homo sapiens) (P08172 whole entry): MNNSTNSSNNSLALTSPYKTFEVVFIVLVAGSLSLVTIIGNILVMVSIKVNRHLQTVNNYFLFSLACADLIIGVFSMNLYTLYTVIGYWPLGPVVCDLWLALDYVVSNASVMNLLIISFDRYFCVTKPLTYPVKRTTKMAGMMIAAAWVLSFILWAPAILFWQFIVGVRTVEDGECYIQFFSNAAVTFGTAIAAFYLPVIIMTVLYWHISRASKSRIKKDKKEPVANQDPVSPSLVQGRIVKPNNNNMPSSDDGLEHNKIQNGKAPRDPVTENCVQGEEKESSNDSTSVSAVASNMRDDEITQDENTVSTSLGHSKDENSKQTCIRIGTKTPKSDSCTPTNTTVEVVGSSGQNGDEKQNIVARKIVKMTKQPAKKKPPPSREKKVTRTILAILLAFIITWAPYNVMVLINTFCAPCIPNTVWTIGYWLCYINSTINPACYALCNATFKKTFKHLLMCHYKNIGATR

[8] = target: Cav1.2 (L-type calcium channel subunit alpha-1C) (Rattus norvegicus, UniProt P22002); test: Displacement of [3H] D888 from rat Cav1.2 (L-type) at 10 uM measured after 120 mins by scintillation counter method relative to control; details: probe [3H] D888
Sequence of Cav1.2 (L-type calcium channel subunit alpha-1C) (P22002 whole entry): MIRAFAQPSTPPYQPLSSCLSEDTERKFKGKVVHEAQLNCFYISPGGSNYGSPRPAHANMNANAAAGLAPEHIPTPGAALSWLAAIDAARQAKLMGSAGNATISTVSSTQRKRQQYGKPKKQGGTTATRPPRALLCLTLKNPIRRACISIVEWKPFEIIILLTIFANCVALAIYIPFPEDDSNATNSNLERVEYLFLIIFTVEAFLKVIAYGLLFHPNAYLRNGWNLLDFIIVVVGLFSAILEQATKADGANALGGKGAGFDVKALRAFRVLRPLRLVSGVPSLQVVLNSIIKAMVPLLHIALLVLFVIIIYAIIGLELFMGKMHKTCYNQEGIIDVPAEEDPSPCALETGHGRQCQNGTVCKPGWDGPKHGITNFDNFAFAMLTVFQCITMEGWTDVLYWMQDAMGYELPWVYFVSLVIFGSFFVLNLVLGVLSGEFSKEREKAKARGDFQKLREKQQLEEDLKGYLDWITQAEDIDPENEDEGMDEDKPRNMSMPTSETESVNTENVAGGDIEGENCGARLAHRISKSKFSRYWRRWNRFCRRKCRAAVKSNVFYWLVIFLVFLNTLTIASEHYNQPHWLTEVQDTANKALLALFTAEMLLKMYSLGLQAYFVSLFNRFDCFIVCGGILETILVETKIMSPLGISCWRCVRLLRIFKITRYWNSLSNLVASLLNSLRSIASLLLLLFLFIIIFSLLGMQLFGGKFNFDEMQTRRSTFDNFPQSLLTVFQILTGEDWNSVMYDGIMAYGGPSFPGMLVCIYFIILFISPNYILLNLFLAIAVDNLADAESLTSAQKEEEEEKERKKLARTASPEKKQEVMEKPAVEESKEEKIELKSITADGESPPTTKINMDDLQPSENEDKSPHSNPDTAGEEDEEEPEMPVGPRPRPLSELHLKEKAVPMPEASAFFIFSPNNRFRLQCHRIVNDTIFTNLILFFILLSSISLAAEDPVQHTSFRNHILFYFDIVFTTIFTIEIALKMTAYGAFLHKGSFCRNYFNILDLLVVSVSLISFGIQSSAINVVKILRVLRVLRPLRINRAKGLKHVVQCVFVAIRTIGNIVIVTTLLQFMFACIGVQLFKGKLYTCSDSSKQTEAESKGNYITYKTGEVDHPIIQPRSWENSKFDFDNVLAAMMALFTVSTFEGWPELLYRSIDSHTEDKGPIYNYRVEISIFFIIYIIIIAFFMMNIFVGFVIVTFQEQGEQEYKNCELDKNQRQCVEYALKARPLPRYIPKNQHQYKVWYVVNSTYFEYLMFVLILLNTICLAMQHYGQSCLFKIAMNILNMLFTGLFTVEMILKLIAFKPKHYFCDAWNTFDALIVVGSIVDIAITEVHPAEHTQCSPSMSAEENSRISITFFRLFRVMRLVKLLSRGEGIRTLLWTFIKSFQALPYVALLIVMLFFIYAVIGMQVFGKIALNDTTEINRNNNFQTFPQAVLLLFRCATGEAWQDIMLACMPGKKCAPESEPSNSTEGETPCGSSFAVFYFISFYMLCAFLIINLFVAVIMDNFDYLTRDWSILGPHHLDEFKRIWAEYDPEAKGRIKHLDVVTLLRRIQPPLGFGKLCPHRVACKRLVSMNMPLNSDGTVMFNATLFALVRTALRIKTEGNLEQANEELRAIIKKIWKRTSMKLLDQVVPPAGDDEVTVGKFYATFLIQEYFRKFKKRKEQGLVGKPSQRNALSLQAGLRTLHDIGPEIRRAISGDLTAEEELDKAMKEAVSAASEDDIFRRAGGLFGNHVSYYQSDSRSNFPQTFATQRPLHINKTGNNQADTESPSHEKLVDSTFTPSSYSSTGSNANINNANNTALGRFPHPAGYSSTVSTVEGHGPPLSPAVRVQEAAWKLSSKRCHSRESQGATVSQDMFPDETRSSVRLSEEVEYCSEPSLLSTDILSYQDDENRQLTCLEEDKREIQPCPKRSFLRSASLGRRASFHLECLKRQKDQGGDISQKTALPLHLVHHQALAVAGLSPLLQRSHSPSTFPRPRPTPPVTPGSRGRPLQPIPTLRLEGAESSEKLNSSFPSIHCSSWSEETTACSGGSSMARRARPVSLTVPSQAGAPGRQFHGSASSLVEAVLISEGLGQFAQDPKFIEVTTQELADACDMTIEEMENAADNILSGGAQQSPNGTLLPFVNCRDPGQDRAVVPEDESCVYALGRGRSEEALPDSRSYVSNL

Sequence of Melanocortin receptor 4 (Homo sapiens) (P32245 whole entry): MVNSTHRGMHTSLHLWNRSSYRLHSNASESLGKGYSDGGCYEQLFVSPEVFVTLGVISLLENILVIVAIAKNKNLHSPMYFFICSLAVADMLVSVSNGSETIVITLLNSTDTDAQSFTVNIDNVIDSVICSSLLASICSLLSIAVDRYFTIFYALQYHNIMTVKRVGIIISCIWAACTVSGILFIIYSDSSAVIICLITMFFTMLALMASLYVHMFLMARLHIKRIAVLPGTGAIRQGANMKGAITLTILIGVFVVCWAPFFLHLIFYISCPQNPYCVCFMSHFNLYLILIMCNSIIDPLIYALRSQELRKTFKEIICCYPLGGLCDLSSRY

CC(C)CCO[C@@H]1[C@H]2OC(C)(C)O[C@H]2[C@H]2Cn3cc(nn3)COCCCCCCN(CCc3ccc4ccccc4c3)CC[C@H]1O2
inhibition [1]: 34%
Activity [2]: 3.3%
Activity (Rattus norvegicus): 3.7%
Activity [3]: 9.4%
inhibition [4]: 19%
inhibition [5]: 87.1%
inhibition [6]: 25.2%
inhibition [7]: 36.2%
inhibition at 2 h, 10 µM [8]: 90.5%
